According to PMC10746543, “Design principles for cyclin K molecular glue degraders” (Nature Chemical Biology, 2023):
“And” between values parts separate entries of the source, which are not always exact repeats. Identical values can stand only once. Like-named read-outs stand apart in the source and are kept apart here. Blank lines part the entries; values can stand above or below the molecule they belong to.

How the values were obtained:
CDK12–cyclin K = CDK12–cyclin K (Homo sapiens, UniProt Q9NYV4); test: Lanthascreen kinase binding assay, CDK12; details: for IC50: Supplementary Table 2, read-out: Lanthascreen IC50 [nM] CDK12; for Lanthascreen raw signal, sheet CDK12: series r1, duplicates
Procedure: (§1) Lanthascreen experiments were performed using commercially available reagents (Thermo Fisher) and according to the manufacturer’s instructions.

CDK12–cyclin K and DDB1 = target: T1, CDK12–cyclin K and DDB1 (Homo sapiens, UniProt Q16531+Q9NYV4, K965R); test: TR-FRET ternary complex formation assay (compound titration); format: binding; details: for TR-FRET signal at compound concentration 0.468 nM / TR-FRET signal at compound concentration 2.16 nM / TR-FRET signal at compound concentration 3.6 nM / TR-FRET signal at compound concentration 7.92001 nM / TR-FRET signal at compound concentration 15.84 nM / TR-FRET signal at compound concentration 30.96 nM / TR-FRET signal at compound concentration 62.6401 nM / TR-FRET signal at compound concentration 125.28 nM / TR-FRET signal at compound concentration 244.8 nM / TR-FRET signal at compound concentration 993.601 nM / TR-FRET signal at compound concentration 2001.6 nM: raw replicate titration data
T1 construct: His6–CDK12 (a.a. 713–1,052); full-length or beta-propeller B domain deletion (ΔBPB: a.a. 396–705 deleted) constructs of His6–DDB1ΔBPB, StrepII–Avi–DDB1, or His6–Spy–DDB1; made in house; host or cells: Trichoplusia ni High Five insect cells (baculovirus)
In short: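 A time delay of 70 μs preceded acquisition, limiting background fluorescence; the ratio of emission at 520 versus 490 nm gave the TR-FRET value.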

HEK293T cells = test: Drug sensitivity assay (CellTiter-Glo viability) with or without MLN4924 pretreatment; format: cell-based, human; details: Supplementary Table 2; for EC50: Homo sapiens, HEK-293T, HEK293T viability, 72 h, compound alone, read-out: Cellular assays EC50; for Toxicity rescue: MLN4924-mediated cytotoxicity rescue, 10 µM used where n.d.
In short: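 Cas9-expressing HEK293T cells receive either vehicle or 100 nM MLN4924, then compounds 2 h afterwards. After three days, luminescence-based viability is measured and calculated relative to DMSO.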

[1] = tested on: cyclin K–eGFP degradation reporter; test: Cyclin K reporter stability analysis (dual-color cyclin K–eGFP reporter); format: cell-based, human; details: source data sheet correlations
In short: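 Readout was the eGFP-to-mCherry geometric-mean ratio by flow cytometry, normalized to three DMSO controls, after 5 h drug exposure. Cells used were HEK293T–Cas9 expressing the dual-colour cyclin K–eGFP degradation reporter.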

CDK9–cyclin T = target: T2, CDK9–cyclin T (Homo sapiens, UniProt P50750); test: Lanthascreen kinase binding assay, CDK9; details: for IC50: Supplementary Table 2, read-out: Lanthascreen IC50 [nM] CDK9; for Lanthascreen TR-FRET signal (raw ratio), sheet CDK9: first titration set (r1), duplicates
T2 construct: purchased Thermo Fisher
Procedure: as §1

CDK2–cyclin A = target: T3, CDK2–cyclin A (Homo sapiens, UniProt P24941); test: Lanthascreen kinase binding assay, CDK2; details: for Lanthascreen signal, sheet CDK2: raw replicates, experiment r1-r11
T3 construct: purchased Thermo Fisher
Procedure: as §1

[2] = in vitro complex formation, 50 nM CDK12–cyclin K, 100 nM DDB1, text and figures, read-out: TR-FRET EC50
[3] = sheet MOESM7, read-out: log TR-FRET EC50 (converted)
[4] = source data sheet correlations, read-out: TR-FRET EC50
[5] = Lanthascreen, average, Extended Data Fig. 8, read-out: CDK2 IC50
[6] = Supplementary Table 2, read-out: Lanthascreen IC50 [nM] CDK2

T2 sequence (P50750 whole entry): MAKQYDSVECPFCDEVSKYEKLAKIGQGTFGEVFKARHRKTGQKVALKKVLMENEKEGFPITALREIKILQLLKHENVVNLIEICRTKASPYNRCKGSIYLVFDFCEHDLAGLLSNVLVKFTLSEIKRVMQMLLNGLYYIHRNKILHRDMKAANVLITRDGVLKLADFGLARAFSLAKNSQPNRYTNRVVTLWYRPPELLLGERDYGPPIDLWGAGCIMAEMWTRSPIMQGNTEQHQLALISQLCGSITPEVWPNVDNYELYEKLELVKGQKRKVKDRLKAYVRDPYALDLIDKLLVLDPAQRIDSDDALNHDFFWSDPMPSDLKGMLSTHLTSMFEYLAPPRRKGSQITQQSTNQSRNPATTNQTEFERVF
T2 sequence (O60563 whole entry partner): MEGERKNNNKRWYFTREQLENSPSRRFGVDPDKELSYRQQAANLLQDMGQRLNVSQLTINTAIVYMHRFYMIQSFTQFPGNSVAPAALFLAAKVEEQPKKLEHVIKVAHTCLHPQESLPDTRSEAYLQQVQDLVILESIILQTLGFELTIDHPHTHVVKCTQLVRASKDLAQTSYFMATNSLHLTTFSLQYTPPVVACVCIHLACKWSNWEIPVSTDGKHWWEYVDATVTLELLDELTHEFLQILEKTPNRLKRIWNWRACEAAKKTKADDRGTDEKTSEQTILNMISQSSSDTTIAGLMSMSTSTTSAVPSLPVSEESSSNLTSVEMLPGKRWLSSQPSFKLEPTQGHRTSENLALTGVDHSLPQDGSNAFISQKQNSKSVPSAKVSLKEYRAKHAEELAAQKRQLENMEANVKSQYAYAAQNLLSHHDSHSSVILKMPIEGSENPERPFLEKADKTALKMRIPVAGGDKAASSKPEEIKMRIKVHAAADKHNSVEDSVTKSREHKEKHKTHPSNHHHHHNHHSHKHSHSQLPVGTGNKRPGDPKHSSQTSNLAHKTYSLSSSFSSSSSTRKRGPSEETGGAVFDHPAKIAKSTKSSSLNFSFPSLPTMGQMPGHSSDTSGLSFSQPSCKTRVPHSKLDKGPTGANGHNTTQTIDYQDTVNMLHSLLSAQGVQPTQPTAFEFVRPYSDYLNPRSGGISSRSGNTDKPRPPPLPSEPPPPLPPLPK
Sequence of CDK12–cyclin K (Q9NYV4 713-1052): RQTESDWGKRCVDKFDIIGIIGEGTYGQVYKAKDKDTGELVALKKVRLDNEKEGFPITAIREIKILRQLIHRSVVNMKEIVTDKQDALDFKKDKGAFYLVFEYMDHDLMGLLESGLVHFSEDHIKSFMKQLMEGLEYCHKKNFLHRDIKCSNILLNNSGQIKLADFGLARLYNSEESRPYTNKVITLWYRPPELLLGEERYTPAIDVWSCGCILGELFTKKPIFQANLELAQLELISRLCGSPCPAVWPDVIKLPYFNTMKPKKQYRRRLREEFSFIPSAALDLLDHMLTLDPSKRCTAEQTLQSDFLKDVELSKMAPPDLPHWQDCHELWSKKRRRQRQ
Sequence of CDK12–cyclin K (O75909 1-267 partner limits assumed): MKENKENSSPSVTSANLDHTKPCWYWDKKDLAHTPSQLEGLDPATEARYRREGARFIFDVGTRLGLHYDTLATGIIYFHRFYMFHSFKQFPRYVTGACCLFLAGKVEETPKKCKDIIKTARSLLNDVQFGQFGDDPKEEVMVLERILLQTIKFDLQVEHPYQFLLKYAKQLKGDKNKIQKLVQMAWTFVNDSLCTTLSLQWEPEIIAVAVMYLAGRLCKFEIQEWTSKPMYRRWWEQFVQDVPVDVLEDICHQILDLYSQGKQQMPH
T1 sequence (Q9NYV4 713-1052 K965R): as the sequence (Q9NYV4 713-1052) above, with K253R counted along it
T1 sequence (O75909 1-267 partner): as the sequence (O75909 1-267 partner limits assumed) above
T1 sequence (Q16531 whole entry): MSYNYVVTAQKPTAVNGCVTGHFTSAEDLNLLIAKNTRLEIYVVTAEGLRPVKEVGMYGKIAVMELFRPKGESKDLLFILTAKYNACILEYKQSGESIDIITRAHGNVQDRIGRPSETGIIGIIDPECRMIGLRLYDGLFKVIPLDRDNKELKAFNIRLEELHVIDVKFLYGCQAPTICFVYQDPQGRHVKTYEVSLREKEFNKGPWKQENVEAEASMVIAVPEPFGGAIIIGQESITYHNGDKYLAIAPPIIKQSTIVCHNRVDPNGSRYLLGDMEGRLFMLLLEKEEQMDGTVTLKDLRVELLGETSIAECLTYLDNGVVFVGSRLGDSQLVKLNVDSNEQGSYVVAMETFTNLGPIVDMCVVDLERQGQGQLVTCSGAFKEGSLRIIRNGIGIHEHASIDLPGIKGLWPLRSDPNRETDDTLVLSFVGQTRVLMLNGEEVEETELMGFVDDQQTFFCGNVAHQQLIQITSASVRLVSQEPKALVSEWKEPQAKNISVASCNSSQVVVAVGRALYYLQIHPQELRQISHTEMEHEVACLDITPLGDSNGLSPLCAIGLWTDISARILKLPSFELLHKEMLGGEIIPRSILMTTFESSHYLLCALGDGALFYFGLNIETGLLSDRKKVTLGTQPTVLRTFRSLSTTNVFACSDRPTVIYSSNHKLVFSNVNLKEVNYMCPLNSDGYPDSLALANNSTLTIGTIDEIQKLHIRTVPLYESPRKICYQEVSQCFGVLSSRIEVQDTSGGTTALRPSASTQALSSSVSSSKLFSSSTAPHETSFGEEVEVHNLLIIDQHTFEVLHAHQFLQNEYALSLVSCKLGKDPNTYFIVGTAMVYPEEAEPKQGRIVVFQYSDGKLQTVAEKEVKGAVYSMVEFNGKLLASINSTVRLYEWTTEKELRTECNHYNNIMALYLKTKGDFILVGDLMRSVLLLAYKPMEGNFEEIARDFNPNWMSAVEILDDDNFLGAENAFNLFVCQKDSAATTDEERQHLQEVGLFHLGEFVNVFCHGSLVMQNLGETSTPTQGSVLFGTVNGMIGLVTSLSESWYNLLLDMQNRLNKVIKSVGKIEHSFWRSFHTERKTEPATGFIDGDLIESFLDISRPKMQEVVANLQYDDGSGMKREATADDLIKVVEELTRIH

IC50 (CDK12–cyclin K): 25 nM
Lanthascreen raw signal, sheet CDK12 (CDK12–cyclin K; compound 1.02544 nM): 0.009355 and 0.008483
Lanthascreen raw signal, sheet CDK12 (CDK12–cyclin K; compound 3.15521 nM): 0.00952 and 0.009538
Lanthascreen raw signal, sheet CDK12 (CDK12–cyclin K; compound 9.46563 nM): 0.009122 and 0.008857
Lanthascreen raw signal, sheet CDK12 (CDK12–cyclin K; compound 31.5521 nM): 0.006579 and 0.007668
Lanthascreen raw signal, sheet CDK12 (CDK12–cyclin K; compound 99.3891 nM): 0.005593 and 0.007192
Lanthascreen raw signal, sheet CDK12 (CDK12–cyclin K; compound 315.521 nM): 0.006881 and 0.006508
Lanthascreen raw signal, sheet CDK12 (CDK12–cyclin K; compound 3155.21 nM): 0.007229 and 0.005774
Lanthascreen raw signal, sheet CDK12 (CDK12–cyclin K; compound 10002 nM): 0.005716 and 0.005184
TR-FRET signal at compound concentration 0.468 nM (CDK12–cyclin K and DDB1): 0.2798 and 0.3065 and 0.1782 and 0.1849
TR-FRET signal at compound concentration 2.16 nM (CDK12–cyclin K and DDB1): 0.3614 and 0.3498 and 0.2211 and 0.2229
TR-FRET signal at compound concentration 3.6 nM (CDK12–cyclin K and DDB1): 0.435 and 0.4393 and 0.2978 and 0.2973
TR-FRET signal at compound concentration 7.92001 nM (CDK12–cyclin K and DDB1): 0.5995 and 0.6274 and 0.4373 and 0.4353
TR-FRET signal at compound concentration 15.84 nM (CDK12–cyclin K and DDB1): 0.9577 and 0.9944 and 0.7392 and 0.7343
TR-FRET signal at compound concentration 30.96 nM (CDK12–cyclin K and DDB1): 1.593 and 1.564 and 1.2847 and 1.436
TR-FRET signal at compound concentration 62.6401 nM (CDK12–cyclin K and DDB1): 1.875 and 1.832 and 1.71 and 1.6908
TR-FRET signal at compound concentration 125.28 nM (CDK12–cyclin K and DDB1): 1.954 and 1.862 and 1.734 and 1.741
TR-FRET signal at compound concentration 244.8 nM (CDK12–cyclin K and DDB1): 2.043 and 1.982 and 1.799 and 1.754
TR-FRET signal at compound concentration 993.601 nM (CDK12–cyclin K and DDB1): 2.0625 and 2.016 and 1.825 and 1.774
TR-FRET signal at compound concentration 2001.6 nM (CDK12–cyclin K and DDB1): 1.983 and 1.981 and 1.797 and 1.763
EC50 (CDK12–cyclin K and DDB1; [2]): 0.02 ± 0.001 µM
EC50 (CDK12–cyclin K and DDB1; [3]): 0.0198 µM
EC50 (CDK12–cyclin K and DDB1; [4]): 0.0198 µM
DC50 ([1]; read-out: DC50): 0.051 µM
IC50 (CDK9–cyclin T): 2580 nM
Lanthascreen TR-FRET signal (raw ratio), sheet CDK9 (CDK9–cyclin T; compound 1.02544 nM): 0.01642 and 0.01407
Lanthascreen TR-FRET signal (raw ratio), sheet CDK9 (CDK9–cyclin T; compound 3.15521 nM): 0.01297 and 0.01448
Lanthascreen TR-FRET signal (raw ratio), sheet CDK9 (CDK9–cyclin T; compound 9.46563 nM): 0.01462 and 0.01504
Lanthascreen TR-FRET signal (raw ratio), sheet CDK9 (CDK9–cyclin T; compound 31.5521 nM): 0.01422 and 0.01715
Lanthascreen TR-FRET signal (raw ratio), sheet CDK9 (CDK9–cyclin T; compound 99.3891 nM): 0.0151 and 0.01375
Lanthascreen TR-FRET signal (raw ratio), sheet CDK9 (CDK9–cyclin T; compound 315.521 nM): 0.01436 and 0.01406
Lanthascreen TR-FRET signal (raw ratio), sheet CDK9 (CDK9–cyclin T; compound 3155.21 nM): 0.01124 and 0.01046
Lanthascreen TR-FRET signal (raw ratio), sheet CDK9 (CDK9–cyclin T; compound 10002 nM): 0.00772 and 0.01002
Lanthascreen signal, sheet CDK2 (CDK2–cyclin A; Compound 1.02544 nM): 0.01044 and 0.01012
Lanthascreen signal, sheet CDK2 (CDK2–cyclin A; Compound 3.15521 nM): 0.0108 and 0.009644
Lanthascreen signal, sheet CDK2 (CDK2–cyclin A; Compound 9.46563 nM): 0.01089 and 0.009432
Lanthascreen signal, sheet CDK2 (CDK2–cyclin A; Compound 31.5521 nM): 0.01098 and 0.01188
Lanthascreen signal, sheet CDK2 (CDK2–cyclin A; Compound 99.3891 nM): 0.011 and 0.01075
Lanthascreen signal, sheet CDK2 (CDK2–cyclin A; Compound 315.521 nM): 0.009926 and 0.01051
Lanthascreen signal, sheet CDK2 (CDK2–cyclin A; Compound 3155.21 nM): 0.01049 and 0.01005
Lanthascreen signal, sheet CDK2 (CDK2–cyclin A; Compound 10002 nM): 0.009311 and 0.007215
IC50 (CDK2–cyclin A; [5]): > 10000 nM
IC50 (CDK2–cyclin A; [6]): > 10000 nM
SMILES: Cn1cc(-c2cnn3c(NCc4nc5cc(Cl)c(Cl)cc5[nH]4)nc(N4CCOCC4)nc23)cn1 [DS74]
EC50 (HEK293T cells): 0.104 µM
Toxicity rescue (HEK293T cells): 916%

IC50 (CDK12–cyclin K): 134 nM
Lanthascreen raw signal, sheet CDK12 (CDK12–cyclin K; compound 1.02544 nM): 0.006087 and 0.009032
Lanthascreen raw signal, sheet CDK12 (CDK12–cyclin K; compound 3.15521 nM): 0.01061 and 0.007755
Lanthascreen raw signal, sheet CDK12 (CDK12–cyclin K; compound 9.46563 nM): 0.009135 and 0.006327
Lanthascreen raw signal, sheet CDK12 (CDK12–cyclin K; compound 31.5521 nM): 0.007705 and 0.007896
Lanthascreen raw signal, sheet CDK12 (CDK12–cyclin K; compound 99.3891 nM): 0.007199 and 0.007003
Lanthascreen raw signal, sheet CDK12 (CDK12–cyclin K; compound 315.521 nM): 0.006511 and 0.005836
Lanthascreen raw signal, sheet CDK12 (CDK12–cyclin K; compound 3155.21 nM): 0.006388 and 0.004562
Lanthascreen raw signal, sheet CDK12 (CDK12–cyclin K; compound 10002 nM): 0.005868 and 0.005096
TR-FRET signal at compound concentration 0.468 nM (CDK12–cyclin K and DDB1): 0.3328 and 0.3098
TR-FRET signal at compound concentration 2.16 nM (CDK12–cyclin K and DDB1): 0.4001 and 0.3765
TR-FRET signal at compound concentration 3.6 nM (CDK12–cyclin K and DDB1): 0.5431 and 0.4961
TR-FRET signal at compound concentration 7.92001 nM (CDK12–cyclin K and DDB1): 0.8328 and 0.7643
TR-FRET signal at compound concentration 15.84 nM (CDK12–cyclin K and DDB1): 1.412 and 1.246
TR-FRET signal at compound concentration 30.96 nM (CDK12–cyclin K and DDB1): 2.416 and 2.183
TR-FRET signal at compound concentration 62.6401 nM (CDK12–cyclin K and DDB1): 3.349 and 3.281
TR-FRET signal at compound concentration 125.28 nM (CDK12–cyclin K and DDB1): 3.867 and 3.698
TR-FRET signal at compound concentration 244.8 nM (CDK12–cyclin K and DDB1): 3.9597 and 3.8541
TR-FRET signal at compound concentration 993.601 nM (CDK12–cyclin K and DDB1): 3.967 and 3.873
TR-FRET signal at compound concentration 2001.6 nM (CDK12–cyclin K and DDB1): 4.005 and 3.884
EC50 (CDK12–cyclin K and DDB1; [2]): 0.028 ± 0.001 µM
EC50 (CDK12–cyclin K and DDB1; [3]): 0.0276 µM
EC50 (CDK12–cyclin K and DDB1; [4]): 0.0276 µM
DC50 ([1]; log value): 0.004 µM
DC50 ([1]; read-out: DC50): 0.004 µM
IC50 (CDK9–cyclin T): 684 nM
Lanthascreen TR-FRET signal (raw ratio), sheet CDK9 (CDK9–cyclin T; compound 1.02544 nM): 0.01471 and 0.01339
Lanthascreen TR-FRET signal (raw ratio), sheet CDK9 (CDK9–cyclin T; compound 3.15521 nM): 0.01367 and 0.0125
Lanthascreen TR-FRET signal (raw ratio), sheet CDK9 (CDK9–cyclin T; compound 9.46563 nM): 0.01267 and 0.01475
Lanthascreen TR-FRET signal (raw ratio), sheet CDK9 (CDK9–cyclin T; compound 31.5521 nM): 0.01209 and 0.01181
Lanthascreen TR-FRET signal (raw ratio), sheet CDK9 (CDK9–cyclin T; compound 99.3891 nM): 0.01168 and 0.01283
Lanthascreen TR-FRET signal (raw ratio), sheet CDK9 (CDK9–cyclin T; compound 315.521 nM): 0.01175 and 0.01042
Lanthascreen TR-FRET signal (raw ratio), sheet CDK9 (CDK9–cyclin T; compound 3155.21 nM): 0.005807 and 0.004691
Lanthascreen TR-FRET signal (raw ratio), sheet CDK9 (CDK9–cyclin T; compound 10002 nM): 0.004107 and 0.003744
Lanthascreen signal, sheet CDK2 (CDK2–cyclin A; Compound 1.02544 nM): 0.009545 and 0.009565
Lanthascreen signal, sheet CDK2 (CDK2–cyclin A; Compound 3.15521 nM): 0.01077 and 0.01025
Lanthascreen signal, sheet CDK2 (CDK2–cyclin A; Compound 9.46563 nM): 0.009718 and 0.00939
Lanthascreen signal, sheet CDK2 (CDK2–cyclin A; Compound 31.5521 nM): 0.009822 and 0.01021
Lanthascreen signal, sheet CDK2 (CDK2–cyclin A; Compound 99.3891 nM): 0.009696 and 0.01058
Lanthascreen signal, sheet CDK2 (CDK2–cyclin A; Compound 315.521 nM): 0.0105 and 0.00942
Lanthascreen signal, sheet CDK2 (CDK2–cyclin A; Compound 3155.21 nM): 0.01064 and 0.008324
Lanthascreen signal, sheet CDK2 (CDK2–cyclin A; Compound 10002 nM): 0.005535 and 0.005659
IC50 (CDK2–cyclin A; [5]): > 10000 nM
IC50 (CDK2–cyclin A; [6]): > 10000 nM
SMILES: CN1CCN(c2nc(NCc3nc4c(F)c(F)ccc4[nH]3)n3ncc(Br)c3n2)CC1 [DS71]
EC50 (HEK293T cells): 0.01 µM
Toxicity rescue (HEK293T cells): 610%
